Laboratory results: patent US9090576B2, “2-substituted-p-quinone derivatives for treatment of oxidative stress diseases” (Edison Pharmaceuticals, Inc., priority 2008, dated 2015)
Read-outs that look alike come from different tables or passages of the source.

Experiments:
Assay type in all cases: cell-based
[1] = test system: human dermal fibroblasts from Huntington's patients; test: Rescue of BSO-stressed fibroblasts from Huntington's patients (screen as Example A); conditions: Fibroblast, read-out: EC50, protection against Huntington's
Method: (§1) A culture with FRDA fibroblasts was started from a 1 ml vial with approximately 500,000 cells stored in liquid nitrogen. Cells were propagated in 10 cm cell culture dishes by splitting every third day in a ratio of 1:3 until nine plates were available. Once confluent, fibroblasts were harvested. For 54 micro titer plates (96 well-MTP) a total of 14.3 million cells (passage eight) were re-suspended in 480 ml medium, corresponding to 100 μl medium with 3,000 cells/well. The remaining cells were distributed in 10 cm cell culture plates (500,000 cells/plate) for propagation. The plates were incubated overnight at 37° C. in an atmosphere with 95% humidity and 5% CO2 to allow attachment of the cells to the culture plate.
(§2) MTP medium (243 μl) was added to a well of the microtiter plate. The test compounds were unfrozen, and 7.5 μl of a 5 mM stock solution was dissolved in the well containing 243 μl medium, resulting in a 150 μM master solution. Serial dilutions from the master solution were made. The period between the single dilution steps was kept as short as possible (generally less than 1 second).
(§3) Plates were kept overnight in the cell culture incubator. The next day, 10 μl of a 10 mM BSO solution were added to the wells, resulting in a 1 mM final BSO concentration. Forty-eight hours later, three plates were examined under a phase-contrast microscope to verify that the cells in the 0% control (wells E1-H1) were clearly dead. The medium from all plates was discarded, and the remaining liquid was removed by gently tapping the plate inversed onto a paper towel.
(§4) 100 μl of PBS containing 1.2 μM Calcein AM were then added to each well. The plates were incubated for 50-70 minutes at room temperature. After that time the PBS was discarded, the plate gently tapped on a paper towel and fluorescence (excitation/emission wavelengths of 485 nm and 525 nm, respectively) was read on a Gemini fluorescence reader. Data was imported into Microsoft Excel (EXCEL is a registered trademark of Microsoft Corporation for a spreadsheet program) and used to calculate the EC50 concentration for each compound.
Compounds of the invention were tested using the screen as described in Example A, but substituting FRDA cells with Huntington's cells obtained from the Coriell Cell Repositories (Camden, N.J.; repository number GM 04281). The compounds were tested for their ability to rescue human dermal fibroblasts from Huntington's patients from oxidative stress.

[2] = test system: human dermal fibroblasts from LHON patients; test: Rescue of BSO-stressed fibroblasts from LHON patients (screen as Example A); conditions: Fibroblast, read-out: EC50, protection against LHON
Method: as §1, §2, §3, §4
Compounds of the invention were screened as described in Example A, but substituting FRDA cells with Leber's Hereditary Optic Neuropathy (LHON) cells obtained from the Coriell Cell Repositories (Camden, N.J.; repository number GM03858). The compounds were tested for their ability to rescue human dermal fibroblasts from LHON patients from oxidative stress.

[3] = test system: Human dermal fibroblasts from Friedreich's Ataxia patients; test: Rescue of BSO-stressed FRDA fibroblasts (Calcein AM viability); conditions: BSO-stressed FRDA fibroblasts (GM04078), less than about 150 nM, read-out: EC50, protection against FRDA
Method: An initial screen was performed to identify compounds effective for the amelioration of redox disorders. Test samples, 4 reference compounds (Idebenone, decylubiquinone, Trolox and α-tocopherol acetate), and solvent controls were tested for their ability to rescue FRDA fibroblasts stressed by addition of L-buthionine-(S,R)-sulfoximine (BSO), as described in Jauslin et al., Hum. Mol. Genet. 11(24):3055 (2002), Jauslin et al., FASEB J. 17:1972-4 (2003), and International Patent Application WO 2004/003565. […] This specific BSO-mediated cell death can be prevented by administration of antioxidants or molecules involved in the antioxidant pathway, such as α-tocopherol, selenium, or small molecule glutathione peroxidase mimetics. However, antioxidants differ in their potency, i.e. the concentration at which they are able to rescue BSO-stressed FRDA fibroblasts.
MEM (a medium enriched in amino acids and vitamins, catalog no. 1-31F24-I) and Medium 199 (M199, catalog no. 1-21F22-I) with Earle's Balanced Salts, without phenol red, were purchased from Bioconcept. Fetal Calf Serum was obtained from PAA Laboratories. Basic fibroblast growth factor and epidermal growth factor were purchased from PeproTech. Penicillin-streptomycin-glutamine mix, L-buthionine (S,R)-sulfoximine, (+)-α-tocopherol acetate, decylubiquinone, and insulin from bovine pancreas were purchased from Sigma. Trolox (6-hydroxy-2,5,7,8-tetramethylchromane-2-carboxylic acid) was obtained from Fluka. Idebenone was obtained from Chemo Iberica. Calcein AM was purchased from Molecular Probes. Cell culture medium was made by combining 125 ml M199 EBS, 50 ml Fetal Calf Serum, 100 U/ml penicillin, 100 μg/ml streptomycin, 2 mM glutamine, 10 μg/ml insulin, 10 ng/ml EGF, and 10 ng/ml bFGF; MEM EBS was added to make the volume up to 500 ml. A 10 mM BSO solution was prepared by dissolving 444 mg BSO in 200 ml of medium with subsequent filter-sterilization. During the course of the experiments, this solution was stored at +4° C. The cells were obtained from the Coriell Cell Repositories (Camden, N.J.; repository number GM04078) and grown in 10 cm tissue culture plates. Every third day, they were split at a 1:3 ratio.
The test samples were supplied in 1.5 ml glass vials. The compounds were diluted with DMSO, ethanol or PBS to result in a 5 mM stock solution. Once dissolved, they were stored at −20° C. Reference antioxidants (Idebenone, decylubiquinone, α-tocopherol acetate and trolox) were dissolved in DMSO.
Test samples were screened according to the following protocol:
as §1, §2
as §3, with “The medium from all plates was discarded, and the remaining liquid was removed by gently tapping the plate inversed onto a paper towel.” left out

[4] = BSO-stressed Huntington's fibroblasts (GM 04281), less than about 150 nM
[5] = BSO-stressed LHON fibroblasts (GM03858), less than about 150 nM

Compound	EC50 [1, 4]	EC50 [2, 5]	EC50 [3]	EC50 [1]	EC50 [2]
CCNC(=O)NCCC1=C(CCC(C)(C)O)C(=O)C(C)=C(C)C1=O [1-Ethyl-3-(2(2-(3-hydroxy-3-methylbutyl)-4,5-dimethyl-3,6-dioxocyclohexa-1,4-dienyl)ethyl)urea]	< 150 nM	< 150 nM	< 150 nM	–	–
CC1=C(C)C(=O)C(CCCC(=O)NCCO)=C(C)C1=O [N-(2-hydroxyethyl)-4-(2,4,5-trimethyl-3,6-dioxocyclohexa-1,4-dienyl)butanamide]	< 150 nM	< 150 nM	< 150 nM	–	–
CC1=C(C)C(=O)C(CCNC(=O)NCCN2CCOCC2)=C(C)C1=O [1-(2-morpholinoethyl)-3-(2-(2,4,5-trimethyl-3,6-dioxocyclohexa-1,4-dienyl)ethyl)urea]	< 150 nM	< 150 nM	< 150 nM	–	–
CC1=C(C)C(=O)C(CCNC(=O)N2CCN(C)CC2)=C(C)C1=O [4-methyl-N-(2-(2,4,5-trimethyl-3,6-dioxocyclohexa-1,4-dienyl)ethyl)piperazine-1-carboxamide]	< 150 nM	< 150 nM	< 150 nM	–	–
CC1=C(C)C(=O)C(CCCC(=O)Nc2cc(Cl)cc(Cl)c2)=C(C)C1=O [N-(3,5-dichlorophenyl)-4-(2,4,5-trimethyl-3,6-dioxocyclohexa-1,4-dienyl)butanamide]	< 150 nM	< 150 nM	< 150 nM	–	–
CC1=C(C)C(=O)C(CCC(C)(C)O)=C(CCNC(=O)c2ccccc2)C1=O [N-(2-(2-(3-hydroxy-3-methylbutyl)-4,5-dimethyl-3,6-dioxocyclohexa-1,4-dienyl)ethyl)-benzamide]	< 150 nM	< 150 nM	< 150 nM	–	–
CC(=O)c1ccc(C(=O)NCCC2=C(C)C(=O)C(C)=C(C)C2=O)cc1 [4-acetyl-N-(2-(2,4,5-trimethyl-3,6-dioxocyclohexa-1,4-dienyl)ethyl)benzamide]	< 150 nM	< 150 nM	< 150 nM	–	–
CC1=C(C)C(=O)C(CCN(C)C(=O)Cc2ccc(Cl)cc2)=C(C)C1=O [2-(4-chlorophenyl)-N-methyl-N-(2-(2,4,5-trimethyl-3,6-dioxocyclohexa-1,4-dienyl)ethyl)acetamide]	< 150 nM	< 150 nM	< 150 nM	–	–
CC1=C(C)C(=O)C(CCNC(=O)c2ccccc2)=C(C)C1=O [N-(2-(2,4,5-trimethyl-3,6-dioxocyclohexa-1,4-dienyl)ethyl)benzamide]	< 150 nM	< 150 nM	< 150 nM	–	–
CC1=C(C)C(=O)C(CCC(C)(C)O)=C(CCNS(=O)(=O)c2ccc(C)cc2)C1=O [N-(2-(2-(3-hydroxy-3-methylbutyl)-4,5-dimethyl-3,6-dioxocyclohexa-1,4-dienyl)ethyl)-4-methylbenzenesulfonamide]	< 150 nM	< 150 nM	< 150 nM	–	–
CC1=C(C)C(=O)C(CCCC(=O)NCc2cccnc2)=C(C)C1=O [N-(pyridin-3-ylmethyl)-4-(2,4,5-trimethyl-3,6-dioxocyclohexa-1,4-dienyl)butanamide]	< 150 nM	< 150 nM	< 150 nM	–	–
CC1=C(C)C(=O)C(CCC(C)(C)O)=C(CCNC(=O)CCCCC2CCSS2)C1=O (centres unmarked) [5-(1,2-Dithiolan-3-yl)-N-(2-(2-(3-hydroxy-3-methylbutyl)-4,5-dimethyl-3,6-dioxocyclohexa-1,4-dienyl)ethyl)pentanamide]	< 150 nM	< 150 nM	< 150 nM	–	–
CC1=C(C)C(=O)C(CCC(C)C(=O)NCCO)=C(C)C1=O (centres unmarked) [N-(2-hydroxyethyl)-2-methyl-4-(2,4,5-trimethyl-3,6-dioxocyclohexa-1,4-dienyl)butanamide]	< 150 nM	< 150 nM	< 150 nM	–	–
CC1=C(C)C(=O)C(CCC(C)C(=O)Nc2ccc(F)cc2)=C(C)C1=O (centres unmarked) [N-(4-fluorophenyl)-2-methyl-4-(2,4,5-trimethyl-3,6-dioxocyclohexa-1,4-dienyl)butanamide]	< 150 nM	< 150 nM	< 150 nM	–	–
CC1=C(C)C(=O)C(CCCC(=O)Nc2cccnc2)=C(C)C1=O [N-(pyridin-3-yl)-4-(2,4,5-trimethyl-3,6-dioxocyclohexa-1,4-dienyl)butanamide]	< 150 nM	< 150 nM	< 150 nM	–	–
CC1=C(C)C(=O)C(CCN(C)C(=O)NCCN(C)C)=C(C)C1=O [3-(2-(dimethylamino)ethyl)-1-methyl-1-(2-(2,4,5-trimethyl-3,6-dioxocyclohexa-1,4-dienyl)ethyl)urea]	< 150 nM	< 150 nM	< 150 nM	–	–
CC1=C(C)C(=O)C(CCNC(=O)c2ccc(C)cc2)=C(C)C1=O [4-methyl-N-(2-(2,4,5-trimethyl-3,6-dioxocyclohexa-1,4-dienyl)ethyl)benzamide]	< 150 nM	< 150 nM	< 150 nM	–	–
CC1=C(C)C(=O)C(CCCC(=O)NCCc2ccncc2)=C(C)C1=O [N-(2-(pyridin-4-yl)ethyl)-4-(2,4,5-trimethyl-3,6-dioxocyclohexa-1,4-dienyl)butanamide]	< 150 nM	< 150 nM	< 150 nM	–	–
CC1=C(C)C(=O)C(CCCC(=O)Nc2ccccc2C#N)=C(C)C1=O [N-(2-cyanophenyl)-4-(2,4,5-trimethyl-3,6-dioxocyclohexa-1,4-dienyl)butanamide]	< 150 nM	< 150 nM	< 150 nM	–	–
CC1=C(C)C(=O)C(CCC(C)C(=O)NCCc2ccccc2)=C(C)C1=O (centres unmarked) [2-methyl-N-phenethyl-4-(2,4,5-trimethyl-3,6-dioxocyclohexa-1,4-dienyl)butanamide]	< 150 nM	< 150 nM	< 150 nM	–	–
CC1=C(C)C(=O)C(CCNC(=O)N2CCC(=O)CC2)=C(C)C1=O [4-Oxo-N-(2-(2,4,5-trimethyl-3,6-dioxocyclohexa-1,4-dienyl)ethyl)piperidine-1-carboxamide]	–	–	–	< 150 nM	< 150 nM
CC1=C(C)C(=O)C(CCCC(=O)Nc2ccccc2N)=C(C)C1=O [N-(2-aminophenyl)-4-(2,4,5-trimethyl-3,6-dioxocyclohexa-1,4-dienyl)butanamide]	< 150 nM	< 150 nM	< 150 nM	–	–
